Reference: patent US8962842B2, “2-pyridone antimicrobial compositions” (priority 2010, dated 2015)
Read-outs that look alike come from different tables or passages of the source.

Experiments:
[1] = tested on: Staphylococcus aureus (16 strains); experiment: MIC range, broader panel of Quotient Bioresearch strains (Table 3)
[2] = tested on: Enterococcus faecalis (5 strains); experiment: as above
[3] = tested on: Enterococcus faecium (3 strains); experiment: as above
human topoisomerase I = molecular target: T1, human topoisomerase I (Homo sapiens, UniProt P11387); experiment: Inhibition of topoisomerases activity in vitro, Topogen protocol TG1015 (Table 7); type: biochemical; settings: read-out: IC50 hTopo I Assay
T1 construct: purchased Topogen Inc., Port Orange, USA TG1015
T1 sequence (P11387 1-765): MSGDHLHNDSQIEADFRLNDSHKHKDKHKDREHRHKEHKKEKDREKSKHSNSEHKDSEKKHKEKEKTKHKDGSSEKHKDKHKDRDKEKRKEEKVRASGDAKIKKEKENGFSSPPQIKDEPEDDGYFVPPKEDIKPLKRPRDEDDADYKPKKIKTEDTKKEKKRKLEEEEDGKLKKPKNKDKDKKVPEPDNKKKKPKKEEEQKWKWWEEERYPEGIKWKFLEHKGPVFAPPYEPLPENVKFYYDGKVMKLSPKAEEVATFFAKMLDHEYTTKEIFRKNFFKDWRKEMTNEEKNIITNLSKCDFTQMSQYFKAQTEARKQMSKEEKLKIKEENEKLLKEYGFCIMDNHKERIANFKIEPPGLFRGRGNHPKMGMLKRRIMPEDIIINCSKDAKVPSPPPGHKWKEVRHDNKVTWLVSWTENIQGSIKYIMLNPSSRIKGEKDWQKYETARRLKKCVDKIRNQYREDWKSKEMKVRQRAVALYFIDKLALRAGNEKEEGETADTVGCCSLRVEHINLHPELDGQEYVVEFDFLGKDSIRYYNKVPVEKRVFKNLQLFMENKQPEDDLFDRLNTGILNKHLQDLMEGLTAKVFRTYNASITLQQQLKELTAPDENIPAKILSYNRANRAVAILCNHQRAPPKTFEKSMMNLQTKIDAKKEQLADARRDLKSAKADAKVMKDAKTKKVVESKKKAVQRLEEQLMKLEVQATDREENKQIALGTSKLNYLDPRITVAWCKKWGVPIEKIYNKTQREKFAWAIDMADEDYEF

[4] = tested on: Escherichia coli (6 strains); experiment: MIC range, broader panel of Quotient Bioresearch strains (Table 4); type: cell-based
[5] = tested on: Staphylococcus aureus, quinolone-resistant strains (Quotient Bioresearch catalogue); experiment: MIC against pathogens resistant against quinolones (Table 5); settings: strain GP82, Staphylococcus aureus levofloxacin-resistant clinical isolate, amino acid changes GrlA, GrlB & GyrA
physchem = type: physicochemical; settings: thermodynamic from solid
Protocol: The solutions were incubated at room temperature for 24 hours before quantification by HPLC detection. Aqueous solubility was evaluated in simulated gastric fluid (SGF), simulated intestinal fluid (SIF) and phosphate buffer saline (PBS) pH 7.4. Aqueous solubility is expressed in Table 11 as mean solubility in μM.

[6] = tested on: Group C Streptococcus (4 strains); experiment: MIC range, broader panel of Quotient Bioresearch strains (Table 3)
bacterial gyrase = bacterial gyrase (Escherichia coli, UniProt P0AES4+P0AES6); experiment: Inhibition of topoisomerases activity in vitro, Topogen protocol TG1003 (Table 7); type: biochemical
bacterial gyrase, sequence (P0AES4 whole entry, one chain of several): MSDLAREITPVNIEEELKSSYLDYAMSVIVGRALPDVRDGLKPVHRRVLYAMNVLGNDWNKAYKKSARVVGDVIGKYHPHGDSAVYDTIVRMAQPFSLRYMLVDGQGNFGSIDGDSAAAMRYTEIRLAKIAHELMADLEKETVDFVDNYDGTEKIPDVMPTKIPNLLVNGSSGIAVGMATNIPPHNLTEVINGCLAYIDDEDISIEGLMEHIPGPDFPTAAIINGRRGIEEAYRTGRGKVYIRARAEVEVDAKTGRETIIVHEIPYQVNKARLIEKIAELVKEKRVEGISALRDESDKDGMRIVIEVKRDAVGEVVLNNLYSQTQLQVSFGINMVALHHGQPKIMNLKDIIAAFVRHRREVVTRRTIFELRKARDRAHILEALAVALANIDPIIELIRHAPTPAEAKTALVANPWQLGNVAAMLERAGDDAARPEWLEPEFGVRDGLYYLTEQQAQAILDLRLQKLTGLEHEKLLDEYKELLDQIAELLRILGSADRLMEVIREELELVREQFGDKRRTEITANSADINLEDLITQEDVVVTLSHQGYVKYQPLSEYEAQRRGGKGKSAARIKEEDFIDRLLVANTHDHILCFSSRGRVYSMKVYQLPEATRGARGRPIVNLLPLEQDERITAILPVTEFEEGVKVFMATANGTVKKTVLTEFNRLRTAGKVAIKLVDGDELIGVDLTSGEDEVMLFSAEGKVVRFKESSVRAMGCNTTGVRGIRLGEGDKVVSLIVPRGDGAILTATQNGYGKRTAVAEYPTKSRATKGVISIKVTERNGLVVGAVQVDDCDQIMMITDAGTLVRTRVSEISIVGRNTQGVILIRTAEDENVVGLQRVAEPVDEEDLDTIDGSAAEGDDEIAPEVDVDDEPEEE

[7] = molecular target: bacterial topoisomerase IV (Escherichia coli, UniProt P0AFI2+P20083); experiment: Inhibition of topoisomerases activity in vitro, Topogen protocol TG1007 (Table 7); type: biochemical
bacterial topoisomerase IV, sequence (P20083 whole entry): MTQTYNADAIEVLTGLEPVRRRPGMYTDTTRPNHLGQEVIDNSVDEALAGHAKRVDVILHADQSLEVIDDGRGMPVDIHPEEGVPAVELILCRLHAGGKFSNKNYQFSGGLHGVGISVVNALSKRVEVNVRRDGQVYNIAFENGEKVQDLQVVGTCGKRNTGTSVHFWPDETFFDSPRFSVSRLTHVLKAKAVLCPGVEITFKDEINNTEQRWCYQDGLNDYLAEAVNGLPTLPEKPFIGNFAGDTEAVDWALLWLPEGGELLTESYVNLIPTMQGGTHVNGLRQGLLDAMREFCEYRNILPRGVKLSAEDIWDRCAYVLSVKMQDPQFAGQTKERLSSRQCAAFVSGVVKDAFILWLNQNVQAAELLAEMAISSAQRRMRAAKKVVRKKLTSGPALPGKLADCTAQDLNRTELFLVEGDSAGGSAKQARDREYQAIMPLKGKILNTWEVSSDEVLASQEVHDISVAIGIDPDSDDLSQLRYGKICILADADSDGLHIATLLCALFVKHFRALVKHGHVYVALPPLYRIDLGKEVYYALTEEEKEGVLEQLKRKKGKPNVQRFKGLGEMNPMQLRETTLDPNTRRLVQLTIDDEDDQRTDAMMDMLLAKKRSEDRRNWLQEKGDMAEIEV
bacterial topoisomerase IV, sequence (P0AFI2 whole entry): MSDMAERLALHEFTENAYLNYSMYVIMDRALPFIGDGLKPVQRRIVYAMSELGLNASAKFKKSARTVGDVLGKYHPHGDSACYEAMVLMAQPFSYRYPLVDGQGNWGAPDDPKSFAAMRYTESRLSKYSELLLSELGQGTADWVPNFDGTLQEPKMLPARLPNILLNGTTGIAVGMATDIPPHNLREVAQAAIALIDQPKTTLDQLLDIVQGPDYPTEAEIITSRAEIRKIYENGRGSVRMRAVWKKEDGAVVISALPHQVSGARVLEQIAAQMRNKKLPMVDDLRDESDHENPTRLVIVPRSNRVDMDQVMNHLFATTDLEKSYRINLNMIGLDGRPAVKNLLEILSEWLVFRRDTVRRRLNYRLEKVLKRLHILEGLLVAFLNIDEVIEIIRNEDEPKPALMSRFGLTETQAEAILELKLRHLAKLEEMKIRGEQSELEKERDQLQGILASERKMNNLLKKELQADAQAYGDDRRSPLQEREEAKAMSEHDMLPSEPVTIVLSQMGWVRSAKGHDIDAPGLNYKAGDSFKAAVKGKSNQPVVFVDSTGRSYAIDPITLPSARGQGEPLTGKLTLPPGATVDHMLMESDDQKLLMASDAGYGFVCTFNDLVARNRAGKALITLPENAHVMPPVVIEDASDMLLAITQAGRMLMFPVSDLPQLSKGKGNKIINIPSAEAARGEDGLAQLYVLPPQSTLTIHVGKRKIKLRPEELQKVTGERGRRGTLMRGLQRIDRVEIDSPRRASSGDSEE

[8] = Metabolic stability in liver microsomes +/- S9 fraction (Table 8); type: in vitro ADME; settings: 1 μM
Protocol: Metabolic stability of a select number of examples was tested in liver microsomes+/−addition of S9 fraction as described by Kuhnz, W. and Gieschen, H. (1998), Drug Metab. Dispos., 1120-1127. Test concentration was 1 μM and HPLC/MS-MS was used for detection.

[9] = tested on: Haemophilus influenza (5 strains); experiment: MIC range, broader panel of Quotient Bioresearch strains (Table 4); type: cell-based, Haemophilus influenzae
[10] = tested on: Pseudomonas aeruginosa (12 strains); experiment: as above; type: cell-based
[11] = tested on: Acinetobacter baumannii, quinolone-resistant strains (Quotient Bioresearch catalogue); experiment: MIC against pathogens resistant against quinolones (Table 5); type: cell-based; settings: Acinetobacter baumannii, GN54
[12] = tested on: Burkholderia cepacia (5 strains); experiment: MIC range, broader panel of Quotient Bioresearch strains (Table 4); type: cell-based
[13] = tested on: Streptococcus pyogenes (4 strains); experiment: MIC range, broader panel of Quotient Bioresearch strains (Table 3)
[14] = tested on: Klebsiella pneumonia (4 strains); experiment: MIC range, broader panel of Quotient Bioresearch strains (Table 4); type: cell-based; settings: Klebsiella pneumoniae
[15] = tested on: Acinetobacter baumannii (12 strains); experiment: as above; type: cell-based

`Cc1c(-c2ccc3[nH]ncc3c2)ccn2c(=O)c(C(=O)[O-])cc(C3CC3)c12.[K+]` [Example 23 K salt, potassium 1-cyclopropyl-8-(1H-indazol-5-yl)-9-methyl-4-oxo-4H-quinolizine-3-carboxylate] gave an MIC ([1]; read-out: MIC Range High, Staphylococcus aureus (16 strains)) of 0.12 µg/mL, an MIC50 ([1]; read-out: MIC Range Median, Staphylococcus aureus (16 strains)) of 0.03 µg/mL and an MIC ([2]; read-out: MIC Range Low, Enterococcus faecalis (5 strains)) of at most 0.015 µg/mL. It also gave an MIC50 ([2]; read-out: MIC Range Median, Enterococcus faecalis (5 strains)) of at most 0.015 µg/mL, an MIC ([3]; read-out: MIC Range Low, Enterococcus faecium (3 strains)) of 0.06 µg/mL and an MIC50 ([3]; read-out: MIC Range Median, Enterococcus faecium (3 strains)) of 0.25 µg/mL. For the same compound, the IC50 (human topoisomerase I) was over 140 µM, the MIC ([4]; read-out: MIC Range High, Escherichia coli (6 strains)) was 16 µg/mL and the MIC ([4]; read-out: MIC Range Low, Escherichia coli (6 strains)) was at most 0.015 µg/mL. For the same compound, the MIC50 ([4]; read-out: MIC Range Median, Escherichia coli (6 strains)) was 4 µg/mL, the MIC [5] was at most 0.015 µg/mL and the solubility at 24 h (physchem; fassgf or other biorelevant) was 105 µM. It also gave a solubility at 24 h (physchem; pH 7.4, aqueous buffer) of 37 µM, a solubility at 24 h (physchem; simulated gastric fluid) of 8 µM and an MIC ([6]; read-out: MIC Range High, Group C Streptococcus (4 strains)) of 0.03 µg/mL. The MIC ([6]; read-out: MIC Range Low, Group C Streptococcus (4 strains)) was at most 0.015 µg/mL, the MIC50 ([6]; read-out: MIC Range Median, Group C Streptococcus (4 strains)) was at most 0.015 µg/mL and the IC50 (bacterial gyrase) was at most 1.39 µM. The IC50 [7] was 4.34 µM, the “Mean Parent Remaining” value ([8]; Liver microsomes + S9, human) was 80% and the “Mean Parent Remaining” value ([8]; Liver microsomes + S9, mouse) was 2%. For the same compound, the “Mean Parent Remaining” value ([8]; Liver microsomes, human) was 67%, the “Mean Parent Remaining” value ([8]; Liver microsomes, mouse) was 2% and the MIC50 ([9]; 16 h, Median of the strain panel) was at most 0.015 µg/mL. The MIC ([9]; High of the strain panel, read-out: MIC Range High, Haemophilus influenza (5 strains)) was at most 0.015 µg/mL, the MIC ([9]; Low of the strain panel, read-out: MIC Range Low, Haemophilus influenza (5 strains)) was at most 0.015 µg/mL and the MIC ([10]; read-out: MIC Range High, Pseudomonas aeruginosa (12 strains)) was 16 µg/mL. For the same compound, the MIC ([10]; read-out: MIC Range Low, Pseudomonas aeruginosa (12 strains)) was 0.25 µg/mL, the MIC50 ([10]; read-out: MIC Range Median, Pseudomonas aeruginosa (12 strains)) was 2 µg/mL and the MIC [11] was 1 µg/mL. The MIC ([12]; read-out: MIC Range High, Burkholderia cepacia (5 strains)) was 0.25 µg/mL, the MIC ([12]; read-out: MIC Range Low, Burkholderia cepacia (5 strains)) was at most 0.015 µg/mL and the MIC50 ([12]; read-out: MIC Range Median, Burkholderia cepacia (5 strains)) was 0.06 µg/mL. For the same compound, the MIC ([13]; read-out: MIC Range High, Streptococcus pyogenes (4 strains)) was 0.03 µg/mL, the MIC ([13]; read-out: MIC Range Low, Streptococcus pyogenes (4 strains)) was at most 0.015 µg/mL and the MIC50 ([13]; read-out: MIC Range Median, Streptococcus pyogenes (4 strains)) was 0.03 µg/mL. It also gave an MIC ([14]; read-out: MIC Range High, Klebsiella pneumonia (4 strains)) of 16 µg/mL, an MIC ([14]; read-out: MIC Range Low, Klebsiella pneumonia (4 strains)) of 0.06 µg/mL and an MIC50 ([14]; read-out: MIC Range Median, Klebsiella pneumonia (4 strains)) of 5 µg/mL. For the same compound, the MIC ([15]; read-out: MIC Range High, Acinetobacter baumannii (12 strains)) was 8 µg/mL, the MIC ([15]; read-out: MIC Range Low, Acinetobacter baumannii (12 strains)) was 0.03 µg/mL and the MIC50 ([15]; read-out: MIC Range Median, Acinetobacter baumannii (12 strains)) was 3 µg/mL.
